Measured values published in patent US20240166629A1, “HETEROCYCLIC COMPOUNDS CAPABLE OF ACTIVATING STING” (Boehringer Ingelheim International GmbH, priority 2022, published 2024).

Tests used:
[1] = system: Human STING (hSTING, UNIPROT entry Q86WV6, residues 155-341); test: Interaction with hSTING by differential scanning fluorimetry (DSF); type: binding; conditions: 100 μM test compound, 5 μM hSTING protein
Experimental: In DSF, the temperature at which a protein unfolds, also called the melting temperature Tm, is measured by changes in fluorescence of a dye that binds to the hydrophobic parts of the protein. Tm shifts upon binding of a small molecule are correlated with the binding affinity of this small molecule. As target protein, Human STING (hSTING, UNIPROT entry Q86WV6, residues 155-341, MW: 21578.4 Da; protein stock solution: c=1302 μM stock solution in 20 mM Tris, 100 mM NaCl, 2 mM TCEP pH 8.8) was used, as assay buffer 20 mM Tris, 150 mM NaCl pH7.5 was added where and as necessary.
Final concentrations of components in assay: 100 μM test compounds, 5 μM target protein, “5×” SYPR Orange (from stock solution SYPRO orange solution in DMSO (invitrogen cat.-no. 56650-500ul), concentration “5000×”)
Assay Procedure: • 1) Dilutions of compound stock solutions (10 mM in DMSO) were prepared in assay buffer (20 mM Tris, 150 mM NaCl; pH7.5) • 2) 5 μl fluorescent dye stock solution (5000×SYPRO Orange in DMSO) was mixed with 19 μl target protein (1302 μM) and 976 μl assay buffer. • 3) 2 μl of this protein-dye-mixture (25×SYPRO Orange and 25 μM Protein) was added to 8 μl diluted compound solution as prepared in step 1. Final volume was 10 μl. • 4) With every 20 compounds, two negative controls were measured. • 5) The plates were prepared for duplicate measurement and centrifuged for 2 min at 1000 g. • 6) For the measurement, a CFX384 Real-Time System (Bio-Rad) was used. The run consisted of 140 cycles with 0.5° C./cycle (temperature ramp 15 s/cycle, 25° C. to 95° C.).
Data analysis: The melting curves were processed in Bio-Rad CFX Manager. Peak type was set to “negative”. Two replicates of TM (melting temperature) measurements were averaged and the standard deviation was calculated.

human STING variant HAQ = biological target: T1, human STING variant HAQ (Homo sapiens, UniProt Q86WV6, G230A/H232R/R293Q/R71H); test: THP1-Blue ISG IRF-inducible SEAP reporter assay, STING HAQ-variant; type: cell-based; conditions: THP1-Blue ISG cells expressing STING HAQ (parental or re-introduced); 24 hours incubation; SEAP OD 620 nm
T1 construct: expressed in transfected cells; host or cells: THP1-Blue ISG: either parental cells (endogenous HAQ) or hSTING KO clone retrovirally transduced with HAQ
Source text: (§1) Activation of the STING protein expressed in cell lines results in an increase of interferon production. By the stable integration of an interferon regulatory factor (IRF)-inducible SEAP gene (secreted embryonic alkaline phosphatase) reporter construct the functional interferon signaling pathway can be monitored. Using Invivogen's THP1-Blue™ ISG colorimetric enzyme assay and a suitable optical density (OD) reader the activity of SEAP can be detected and quantified. This technique could be used to characterize pharmacological modification of the STING pathway.
(§2) Several single nucleotide polymorphisms have been identified in the human STING gene. To determine the activity of the above described compounds, THP1-Blue™ ISG reporter cell lines expressing the different human STING variants have been generated. To do so, the endogenous human STING was first deleted using the CRISPR/CAS9 system: THP1-Blue ISG cells were electroporated with ALL-IN-ONE CRISPR plasmids targeting the STING gene (purchased from Sigma encoding the gRNA and GFP as a reporter gene for successful transduction). GFP positive cells then were sorted 24 h post transfection and expanded. Cells were then dispersed in semisolid methocel medium to allow single cell clone isolations. Clones were then screened for cGAMP responsiveness using the Quanti-Blue™ reporter assay. Non-responsive clones were subsequently analysed for STING loss by western blotting and sequencing of the STING locus.
(§3) For the overexpression of the human STING variants, a confirmed THP1-Blue™ ISG hSTING KO clone was transduced with individual retroviral plasmids (MSCV-ires-GFP-Blasti) encoding the allelic variants of hSTING (WT (H232R), HAQ, R232H, AQ and R293Q). Transduced cells were sorted for different levels of GFP fluorescence and STING allele expression was analysed by western blot.
(§4) Measurements of SEAP activity were performed in THP1-Blue™ ISG cells stably expressing the different human STING isoforms and the IRF-inducible SEAP reporter construct. Cells were cultivated in RPMI1640 medium with 10% fetal calf serum, 50 μg/ml Penicillin-Streptomycin, 100 μg/ml Zeocin, and 100 μg/ml Normocin in a 37°, 95% humidity and 5% CO2 incubator.
(§5) In preparation for the assay, the cells were distributed into the assay plates with a density of 10000 cells/15 μL per well. Compounds were prepared by an 8 point serial dilution in 50% aqueous DMSO and a final dilution step into medium to ensure a final DMSO concentration of 0.5% in the assay. 5 μL of diluted compounds were added to the plates, followed by a 24 hours incubation at 37° C.
(§6) At the day of the assay, 75 μl per well of Quanti-Blue™ reagent was added to all wells of the plate and the plate was incubated another 30 minutes at 37° C. The OD at 620 nm was measured on the EnVision reader (PerkinElmer).
Data of EC50 values on STING HAQ-variant can be found in table 2a. Shown data below were either derived from the parental THP1-Blue™ ISG cell lines (which express endogenously HAQ) or from genetically engineered THP1-Blue™ ISG cell lines in which first STING has been knocked-out and the HAQ specific STING isoform has been re-introduced as described above.

[2] = biological target: T2, human STING variant H232R (WT) (Homo sapiens, UniProt Q86WV6, H232R); test: THP1-Blue ISG IRF-inducible SEAP reporter assay, STING H232R-variant; type: cell-based; conditions: THP1-Blue ISG hSTING KO cells expressing STING H232R; 24 hours incubation
T2 construct: expressed in transfected cells; host or cells: THP1-Blue ISG hSTING KO clone, retroviral MSCV-ires-GFP-Blasti
Source text: as §1, §2, §3, §4, §5, §6

[3] = biological target: T3, human STING variant R232H (Homo sapiens, UniProt Q86WV6); test: THP1-Blue ISG IRF-inducible SEAP reporter assay, STING R232H-variant; type: cell-based; conditions: THP1-Blue ISG hSTING KO cells expressing STING R232H; 24 hours incubation
T3 construct: expressed in transfected cells; host or cells: THP1-Blue ISG hSTING KO clone, retroviral MSCV-ires-GFP-Blasti
Source text: as §1, §2, §3, §4, §5, §6

[4] = biological target: T4, human STING variant R293Q (Homo sapiens, UniProt Q86WV6, H232R/R293Q); test: THP1-Blue ISG IRF-inducible SEAP reporter assay, STING R293Q-variant; type: cell-based; conditions: THP1-Blue ISG hSTING KO cells expressing STING R293Q; 24 hours incubation
T4 construct: expressed in transfected cells; host or cells: THP1-Blue ISG hSTING KO clone, retroviral MSCV-ires-GFP-Blasti
Source text: as §1, §2, §3, §4, §5, §6

human STING variant AQ = biological target: T5, human STING variant AQ (Homo sapiens, UniProt Q86WV6, G230A/H232R/R293Q); test: THP1-Blue ISG IRF-inducible SEAP reporter assay, STING AQ-variant; type: cell-based; conditions: THP1-Blue ISG hSTING KO cells expressing STING AQ; 24 hours incubation
T5 construct: expressed in transfected cells; host or cells: THP1-Blue ISG hSTING KO clone, retroviral MSCV-ires-GFP-Blasti
Source text: as §1, §2, §3, §4, §5, §6

in vitro = conditions: human, Caco-2, pH 7.4
Experimental: Caco-2 cells were obtained from Leibniz Institute DSMZ-German Collection of Microorganisms and Cell Cultures (Braunschweig, Germany) and cultured in DMEM (Dulbecco's modified Eagle medium) containing (in final concentrations) 10% FCS (fetal calf serum), 1% NEAA (non-essential amino acids), 2 mM Glutamin, 100 U/mL Penicillin and 100 μg/mL Streptomycin. Caco-2 cells were seeded either onto 24-well Transwell inserts (Corning, #3379) for bidirectional permeability assays at a density of 160,000 cells/cm^2 and cultured for 3 weeks, with media change on every second day.
For bidirectional permeability assays 10 mM DMSO stock solutions were diluted in transport buffer (final concentrations: 128.13 mM NaCl, 5.36 mM KCl, 1 mM MgSO4, 1.8 mM CaCl2, 4.17 mM NaHCO3, 1.19 mM Na2HPO4, 0.41 mM NaH2PO4, 15 mM 2-[4-(2-hydroxyethyl)piperazin-1-yl]ethanesulfonic acid (HEPES), 20 mM glucose, pH 7.4) containing 0.25% bovine serum albumin to a final concentration of 10 μM of the test compounds and added to the apical or basal compartment. Cells were incubated with the compounds for up to 2 h. Samples from the opposite compartment were taken at different timepoints.
Compound concentrations in the compartments were quantified using a RapidFire-based high-throughput HPLC/MS/MS system (high performance liquid chromatography/mass spectrometry; BioCius) that was customized to a fully automated and flexible platform, termed RIAS. In this modified setup, the sample was aspirated by a vacuum pump into a 10 μL sample loop for 250 ms and flushed onto a C4 cartridge (3.8 μL bed volume; BioCius) with the aqueous mobile phase (99.9% water, 0.09% formic acid, and 0.01% TFA; flow rate 1.5 mL/min). Prior to bioanalysis samples were spiked with internal standard solution and diluted with acetonitrile (ACN) for protein precipitation. Measurement was operated in multiplereaction monitoring (MRM) mode. Quantification was performed using external calibration. A solid-phase extraction step retained the analyte for 3000 ms while interfering matrix (e.g., buffer components) was removed. With a simple step gradient, the analyte was back-eluted from the cartridge for 3,000 ms with the organic mobile phase (99.9% acetonitrile/methanol [1:1, v:v], 0.09% formic acid, and 0.01% TFA) and flushed into the mass spectrometer at a flow rate of 1.25 mL/min. Afterwards, the cartridge was reequilibrated with the aqueous mobile phase for 500 ms (flow rate 1.5 mL/min). The RapidFire software and a customized control software were obtained from BioCius. QuickQuan 2.3, Xcalibur 2.0.7, and XDK 2.1.0.25 were used to operate the TSQ Vantage mass spectrometer (ThermoFisher, San Jose, CA) integrated to the RapidFire system. Mass spectral data-processing software QuickCalc 7.1.9 was purchased from ThermoFisher. The Master software for the RIAS was programmed in-house using LabVIEW (version 8.6.1; National Instruments, Austin, TX). Data analysis was performed in AssayExplorer 3.2 (Symyx, Sunnyvale, CA), and correlation plots were visualized in Spotfire version 2.2.0 (TIBCO, Palo Alto, CA).
Apparent permeability coefficients in the apical to basal direction (Papp,AB) and in the basal to apical direction (Papp,BA) and efflux ratios were calculated as follows:
Efflux ratio=Papp,BA/Papp,AB
where Q is the amount of compound recovered in the receiver compartment after the incubation time t, C0 the initial compound concentration given to the donor compartment, and s the surface area of the Transwell inserts. […] In addition, transepithelial electrical resistance (TEER) values are measured for each plate before the permeability assay, and total recovery in donor and receiver compartments was determined for each compound.

T4 sequence (Q86WV6 whole entry H232R/R293Q): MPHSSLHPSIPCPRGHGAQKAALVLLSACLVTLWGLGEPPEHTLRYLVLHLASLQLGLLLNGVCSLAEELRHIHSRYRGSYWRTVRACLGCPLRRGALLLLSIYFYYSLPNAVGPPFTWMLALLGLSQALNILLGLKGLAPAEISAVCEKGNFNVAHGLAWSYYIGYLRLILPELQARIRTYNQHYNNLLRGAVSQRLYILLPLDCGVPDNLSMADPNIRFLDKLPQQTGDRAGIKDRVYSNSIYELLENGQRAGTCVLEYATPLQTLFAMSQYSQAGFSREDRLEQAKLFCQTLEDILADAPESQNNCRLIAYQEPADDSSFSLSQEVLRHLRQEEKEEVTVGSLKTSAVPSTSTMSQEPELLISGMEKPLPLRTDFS
T2 sequence (Q86WV6 whole entry H232R): as the sequence (Q86WV6 whole entry H232R/R293Q) above, with Q293R counted along it
T1 sequence (Q86WV6 whole entry R71H/G230A/H232R/R293Q): as the sequence (Q86WV6 whole entry H232R/R293Q) above, with R71H, G230A counted along it
T5 sequence (Q86WV6 whole entry G230A/H232R/R293Q): as the sequence (Q86WV6 whole entry H232R/R293Q) above, with G230A counted along it
T3 sequence (Q86WV6 whole entry, stated change not applied): as the sequence (Q86WV6 whole entry H232R/R293Q) above, with R232H, Q293R counted along it

EC50 (human STING variant HAQ) | EC50 [2] | EC50 [3] | EC50 [4] | EC50 (human STING variant AQ) | Papp A→B at 10 μM (in vitro) | efflux ratio at 10 μM (in vitro) | Structure (SMILES) | TM (changes in TM, thermal shift) [1]
2.3 µM | 0.8 µM | 0.7 µM | 2.2 µM | 1.8 µM |  |  | Cc1cc(F)cc2c(-c3cccc4nn(C)cc34)nn(-c3ccc(N4CCS(=O)(=O)CC4)nc3)c12 [Example #1, 4-(5-(5-fluoro-2′,7-dimethyl-1H,2′H-[3,4′-biindazol]-1-yl)pyridin-2-yl)thiomorpholine 1,1-dioxide] | 21 K
1.9 µM | 0.6 µM | 0.6 µM | 1.8 µM | 1 µM | 150 nm/s | 1.7 | Cc1cc(F)cc2c(-c3cccc4nn(C)cc34)nn(-c3ccc(N4CCN(C=O)CC4)nc3)c12 [Example #3, 4-(5-(5-Fluoro-2′,7-dimethyl-1H,2′H-[3,4′-biindazol]-1-yl)pyridin-2-yl)piperazine-1-carbaldehyde] | 21 K
0.9 µM | 0.3 µM | 0.3 µM | 0.7 µM | 0.6 µM |  |  | Cc1c(Cl)ccc2c(-c3cccc4nn(C)cc34)nn(-c3ccc(N4CCC(S(C)(=O)=O)CC4)nc3)c12 [compound 2, 6-chloro-2′,7-dimethyl-1-(6-(4-(methylsulfonyl)piperidin-1-yl)pyridin-3-yl)-1H,2′H-3,4′-biindazole] | 22 K
0.7 µM | 0.3 µM | 0.3 µM | 0.5 µM | 0.3 µM | 190 nm/s | 1 | Cc1cc(F)cc2c(-c3cccc4nn(C)cc34)nn(-c3ccc(N4CCC(C(=O)O)CC4)nc3)c12 [compound 4, 1-(5-(5-Fluoro-2′,7-dimethyl-1H,2′H-[3,4′-biindazol]-1-yl)pyridin-2-yl)piperidine-4-carboxylic acid] | 24 K
0.6 µM | 0.6 µM | 0.3 µM | 0.6 µM | 0.4 µM | 80 nm/s | 2.6 | Cc1cc(F)cc2c(-c3cccc4nn(C)cc34)nn(-c3ccc(N4C[C@@H]5[C@H](C4)[C@H]5C(=O)O)nc3)c12 [compound 5, (1R,5S,6r)-3-(5-(5-fluoro-2′,7-dimethyl-1H,2′H-[3,4′-biindazol]-1-yl)pyridin-2-yl)-3-azabicyclo[3.1.0]hexane-6-carboxylic acid] | 26 K
0.3 µM | 0.2 µM |  |  |  | 90 nm/s | 2.4 | Cc1c(F)ccc2c(-c3cccc4nn(C)cc34)nn(-c3ccc(N4C[C@@H]5[C@H](C4)[C@H]5C(=O)O)nc3)c12 [compound 6, (1R,5S,6r)-3-(5-(6-fluoro-2′,7-dimethyl-1H,2′H-[3,4′-biindazol]-1-yl)pyridin-2-yl)-3-azabicyclo[3.1.0]hexane-6-carboxylic acid] | 
0.8 µM | 0.2 µM |  |  |  | 130 nm/s | 1.8 | Cc1c(F)ccc2c(-c3cccc4nn(C)cc34)nn(-c3ccc(N4CCC(C(=O)O)CC4)nc3)c12 [compound 7, 1-(5-(6-fluoro-2′,7-dimethyl-1H,2′H-[3,4′-biindazol]-1-yl)pyridin-2-yl)piperidine-4-carboxylic acid] | 
0.7 µM |  |  |  |  | 100 nm/s | 1.5 | Cc1c(Cl)ccc2c(-c3cccc4nn(C)cc34)nn(-c3ccc(N4CCC(C(=O)O)CC4)nc3)c12 [compound 9, 1-(5-(6-chloro-2′,7-dimethyl-1H,2′H-[3,4′-biindazol]-1-yl)pyridin-2-yl)piperidine-4-carboxylic acid] | 
6.6 µM | 2.2 µM | 2.2 µM | 7.8 µM | 5.6 µM |  |  | Cc1cc(Cl)cc2c(-c3cccc4nn(C)cc34)nn(-c3ccc(N4CCC(C(=O)O)CC4)nc3)c12 [compound 10, 1-(5-(5-chloro-2′,7-dimethyl-1H,2′H-[3,4′-biindazol]-1-yl)pyridin-2-yl)piperidine-4-carboxylic acid] | 19 K
3.9 µM | 0.8 µM | 0.9 µM | 3 µM | 2.4 µM |  |  | Cc1cc(Cl)cc2c(-c3cccc4nn(C)cc34)nn(-c3ccc(N4C[C@@H]5[C@H](C4)[C@H]5C(=O)O)nc3)c12 [compound 11, (1R,5S,6r)-3-(5-(5-chloro-2′,7-dimethyl-1H,2′H-[3,4′-biindazol]-1-yl)pyridin-2-yl)-3-azabicyclo[3.1.0]hexane-6-carboxylic acid] | 24 K
0.7 µM | 0.3 µM | 0.3 µM | 0.6 µM | 0.6 µM | 40 nm/s | 6.4 | Cc1c(Cl)c(F)cc2c(-c3cccc4nn(C)cc34)nn(-c3ccc(N4CCC(C(=O)O)CC4)nc3)c12 [compound 12, 1-(5-(6-chloro-5-fluoro-2′,7-dimethyl-1H,2′H-[3,4′-biindazol]-1-yl)pyridin-2-yl) piperidine-4-carboxylic acid] | 
0.3 µM |  |  |  |  | 20 nm/s | 3.6 | Cc1c(Cl)c(F)cc2c(-c3cccc4nn(C)cc34)nn(-c3ccc(N4C[C@@H]5[C@H](C4)[C@H]5C(=O)O)nc3)c12 [compound 13, (1R,5S,6r)-3-(5-(6-chloro-5-fluoro-2′,7-dimethyl-1H,2′H-[3,4′-biindazol]-1-yl)pyridin-2-yl)-3-azabicyclo[3.1.0] hexane-6-carboxylic acid] | 
